Data from patent US11135234B2, “Effective aminoglycoside antibiotic for multidrug-resistant bacteria” (MICROBIAL CHEMISTRY RESEARCH FOUNDATION, priority 2015, dated 2021).
≈ marks a conversion by molar mass, not a printed value.

Tests used:
S. aureus RN4220 = assay: MIC, agar plate dilution method, S. aureus RN4220; format: cell-based, Staphylococcus aureus; settings: for MIC: Staphylococcus aureus, RN4220, S. aureus RN4220, Sensitive bacterium, read-out: minimal inhibitory concentration (MIC)
Summary of the method: (§1)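 Agar plate dilution per Japan Society of Chemotherapy standard; read-out = MIC in μg/mL.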

S. aureus RN4220/pMS520 = assay: MIC, agar plate dilution method, S. aureus RN4220/pMS520; format: cell-based, Staphylococcus aureus; settings: for MIC: Staphylococcus aureus, MRSA, read-out: minimal inhibitory concentration (MIC), S. aureus RN4220/pMS520, MRSA
Summary of the method: as §1

S. aureus MF490 = assay: MIC, agar plate dilution method, S. aureus MF490; format: cell-based, Staphylococcus aureus; settings: for MIC: Staphylococcus aureus, MRSA, read-out: minimal inhibitory concentration (MIC)
Summary of the method: as §1

E. faecium ATCC19434 = assay: MIC, agar plate dilution method, E. faecium ATCC19434; format: cell-based, Enterococcus faecium; settings: for MIC: Enterococcus faecium, ATCC19434, E. faecium ATCC19434, read-out: minimal inhibitory concentration (MIC)
Summary of the method: as §1

E. coli JM109/pMW218 = assay: MIC, agar plate dilution method, E. coli JM109/pMW218; format: cell-based, Escherichia coli; settings: for MIC: Escherichia coli, JM109/PMW218, E. coli JM109/pMW218, Sensitive bacterium, read-out: minimal inhibitory concentration (MIC)
Summary of the method: as §1

[1] = tested on: K. pneumoniae ATCC BAA-1705; assay: MIC, agar plate dilution method, K. pneumoniae ATCC BAA-1705; format: cell-based, Klebsiella pneumoniae; settings: for MIC: Klebsiella pneumoniae, ATCCBAA1705, K. pneumoniae ATCC BAA-1705, KPC-producing strain, read-out: minimal inhibitory concentration (MIC)
Summary of the method: as §1

[2] = tested on: K. pneumoniae ATCC BAA-2146; assay: MIC, agar plate dilution method, K. pneumoniae ATCC BAA-2146; format: cell-based, Klebsiella pneumoniae; settings: for MIC: Klebsiella pneumoniae, ATCCBAA2146, K. pneumoniae ATCC BAA-2146, NDM-producing strain, read-out: minimal inhibitory concentration (MIC)
Summary of the method: as §1

[3] = tested on: A. baumannii ATCC BAA-1710; assay: MIC, agar plate dilution method, A. baumannii ATCC BAA-1710; format: cell-based, Acinetobacter baumannii; settings: for MIC: Acinetobacter baumannii, ATCCBAA1710, A. baumannii ATCC BAA-1710, MDRA, read-out: minimal inhibitory concentration (MIC)
Summary of the method: as §1

S. marcescens TH-0447 = assay: MIC, agar plate dilution method, S. marcescens TH-0447; format: cell-based, Serratia marcescens; settings: for MIC: Serratia marcescens, TH0447, S. marcescens TH-0447, AMK-resistant, read-out: minimal inhibitory concentration (MIC)
Summary of the method: as §1

S. marcescens GN6944 = assay: MIC, agar plate dilution method, S. marcescens GN6944; format: cell-based, Serratia marcescens; settings: S. marcescens GN6944, GM-resistant; for MIC: Serratia marcescens, read-out: minimal inhibitory concentration (MIC)
Summary of the method: as §1

P. aeruginosa PAO1 = assay: MIC, agar plate dilution method, P. aeruginosa PAO1; format: cell-based, Pseudomonas aeruginosa; settings: for MIC: Pseudomonas aeruginosa, PAO1, P. aeruginosa PAO1, Sensitive bacterium, read-out: minimal inhibitory concentration (MIC)
Summary of the method: as §1

P. aeruginosa PAO1/GN315 = assay: MIC, agar plate dilution method, P. aeruginosa PAO1/GN315; format: cell-based, Pseudomonas aeruginosa; settings: for MIC: Pseudomonas aeruginosa, read-out: minimal inhibitory concentration (MIC), P. aeruginosa PAO1/GN315, AMK-resistant
Summary of the method: as §1

P. aeruginosa MSC17707 = assay: MIC, agar plate dilution method, P. aeruginosa MSC17707; format: cell-based, Pseudomonas aeruginosa; settings: for MIC: Pseudomonas aeruginosa, MSC17707, P. aeruginosa MSC17707, AMK-resistant, read-out: minimal inhibitory concentration (MIC)
Summary of the method: as §1

P. aeruginosa MSC01035 = assay: MIC, agar plate dilution method, P. aeruginosa MSC01035; format: cell-based, Pseudomonas aeruginosa; settings: P. aeruginosa MSC01035, ABK-resistant; for MIC: Pseudomonas aeruginosa, read-out: minimal inhibitory concentration (MIC)
Summary of the method: as §1

Compound	MIC (S. aureus RN4220)	MIC (S. aureus RN4220/pMS520)	MIC (S. aureus MF490)	MIC (E. faecium ATCC19434)	MIC (E. coli JM109/pMW218)	MIC [1]	MIC [2]	MIC [3]	MIC (S. marcescens TH-0447)	MIC (S. marcescens GN6944)	MIC (P. aeruginosa PAO1)	MIC (P. aeruginosa PAO1/GN315)	MIC (P. aeruginosa MSC17707)	MIC (P. aeruginosa MSC01035)	other results
CNCC(=O)N[C@@H]1C(CO)O[C@H](OC2O[C@H]3C[C@H](N)[C@@H](O[C@@H]4C(N)C[C@@H](N)C[C@H]4O)OC3C(O)C2NC)C(O)[C@H]1O (stereo partly drawn) [Compound V1-p, 6-deoxy-5-epi-4″-N-sarcosylapramycin]	1 µg/mL (≈ 1.68 µM)	1 µg/mL (≈ 1.68 µM)	4 µg/mL (≈ 6.73 µM)	8 µg/mL (≈ 13.5 µM)	1 µg/mL (≈ 1.68 µM)	1 µg/mL (≈ 1.68 µM)	1 µg/mL (≈ 1.68 µM)	4 µg/mL (≈ 6.73 µM)	8 µg/mL (≈ 13.5 µM)	4 µg/mL (≈ 6.73 µM)	2 µg/mL (≈ 3.36 µM)	4 µg/mL (≈ 6.73 µM)	2 µg/mL (≈ 3.36 µM)	4 µg/mL (≈ 6.73 µM)	–
CNC1C(O[C@H]2OC(CO)[C@@H](NC(=O)CCN)[C@H](O)C2O)O[C@H]2C[C@H](N)[C@@H](O[C@@H]3C(N)C[C@@H](N)C[C@H]3O)OC2C1O (stereo partly drawn) [Compound V1-q, 4″-N-(β-alanyl)-6-deoxy-5-epiapramycin]	1 µg/mL (≈ 1.68 µM)	1 µg/mL (≈ 1.68 µM)	4 µg/mL (≈ 6.73 µM)	8 µg/mL (≈ 13.5 µM)	1 µg/mL (≈ 1.68 µM)	1 µg/mL (≈ 1.68 µM)	1 µg/mL (≈ 1.68 µM)	4 µg/mL (≈ 6.73 µM)	8 µg/mL (≈ 13.5 µM)	4 µg/mL (≈ 6.73 µM)	2 µg/mL (≈ 3.36 µM)	4 µg/mL (≈ 6.73 µM)	2 µg/mL (≈ 3.36 µM)	4 µg/mL (≈ 6.73 µM)	–
CNC1C(O[C@H]2OC(CO)[C@@H](NC(=O)[C@@H](O)CN)[C@H](O)C2O)O[C@H]2C[C@H](N)[C@@H](O[C@@H]3C(N)C[C@@H](N)C[C@H]3O)OC2C1O (stereo partly drawn) [Compound V1-r, 6-deoxy-5-epi-4″-N-(L-isoseryl)apramycin]	1 µg/mL (≈ 1.64 µM)	1 µg/mL (≈ 1.64 µM)	4 µg/mL (≈ 6.55 µM)	8 µg/mL (≈ 13.1 µM)	0.5 µg/mL (≈ 0.819 µM)	1 µg/mL (≈ 1.64 µM)	1 µg/mL (≈ 1.64 µM)	4 µg/mL (≈ 6.55 µM)	8 µg/mL (≈ 13.1 µM)	8 µg/mL (≈ 13.1 µM)	2 µg/mL (≈ 3.28 µM)	2 µg/mL (≈ 3.28 µM)	2 µg/mL (≈ 3.28 µM)	4 µg/mL (≈ 6.55 µM)	–
CNC1C(O[C@H]2OC(CO)[C@@H](NC(=O)[C@H](O)CN)[C@H](O)C2O)O[C@H]2C[C@H](N)[C@@H](O[C@@H]3C(N)C[C@@H](N)C(O)[C@H]3O)OC2C1O (stereo partly drawn) [Compound V1-s, 5-epi-4″-N-(D-isoseryl)apramycin]	1 µg/mL (≈ 1.6 µM)	1 µg/mL (≈ 1.6 µM)	4 µg/mL (≈ 6.38 µM)	16 µg/mL (≈ 25.5 µM)	0.5 µg/mL (≈ 0.798 µM)	0.5 µg/mL (≈ 0.798 µM)	1 µg/mL (≈ 1.6 µM)	4 µg/mL (≈ 6.38 µM)	8 µg/mL (≈ 12.8 µM)	4 µg/mL (≈ 6.38 µM)	1 µg/mL (≈ 1.6 µM)	2 µg/mL (≈ 3.19 µM)	2 µg/mL (≈ 3.19 µM)	4 µg/mL (≈ 6.38 µM)	–
CNC1C(OC2OC(CO)C(NC(=N)N)C(O)C2O)OC2CC(N)C(OC3C(N)CC(N)C(O)C3N)OC2C1O (stereo not drawn) [Compound W2-a, 5-amino-4″-deamino-5-deoxy-5-epi-4″-guanidinoapramycin]	–	–	–	–	–	–	–	–	–	–	–	–	–	–	minimal inhibitory concentration (MIC) (S. aureus RN4220; S. aureus RN4220, Sensitive bacterium): 1 µg/mL (≈ 1.72 µM); minimal inhibitory concentration (MIC) (S. aureus RN4220/pMS520; S. aureus RN4220/pMS520, MRSA): 1 µg/mL (≈ 1.72 µM); minimal inhibitory concentration (MIC) (S. aureus MF490; S. aureus MF490, MRSA): 4 µg/mL (≈ 6.89 µM); minimal inhibitory concentration (MIC) (E. faecium ATCC19434; E. faecium ATCC19434): 8 µg/mL (≈ 13.8 µM); minimal inhibitory concentration (MIC) (E. coli JM109/pMW218; E. coli JM109/pMW218, Sensitive bacterium): 1 µg/mL (≈ 1.72 µM); minimal inhibitory concentration (MIC) ([1]; K. pneumoniae ATCC BAA-1705, KPC-producing strain): 1 µg/mL (≈ 1.72 µM); minimal inhibitory concentration (MIC) ([2]; K. pneumoniae ATCC BAA-2146, NDM-producing strain): 1 µg/mL (≈ 1.72 µM); minimal inhibitory concentration (MIC) ([3]; A. baumannii ATCC BAA-1710, MDRA): 8 µg/mL (≈ 13.8 µM); minimal inhibitory concentration (MIC) (S. marcescens TH-0447; S. marcescens TH-0447, AMK-resistant): 4 µg/mL (≈ 6.89 µM); minimal inhibitory concentration (MIC) (S. marcescens GN6944): 4 µg/mL (≈ 6.89 µM); minimal inhibitory concentration (MIC) (P. aeruginosa PAO1; P. aeruginosa PAO1, Sensitive bacterium): 4 µg/mL (≈ 6.89 µM); minimal inhibitory concentration (MIC) (P. aeruginosa PAO1/GN315; P. aeruginosa PAO1/GN315, AMK-resistant): 4 µg/mL (≈ 6.89 µM); minimal inhibitory concentration (MIC) (P. aeruginosa MSC17707; P. aeruginosa MSC17707, AMK-resistant): 8 µg/mL (≈ 13.8 µM); minimal inhibitory concentration (MIC) (P. aeruginosa MSC01035): 4 µg/mL (≈ 6.89 µM)
CNC1C(O[C@H]2OC(CO)[C@@H](NC(=O)CN)[C@H](O)C2O)O[C@H]2C[C@H](N)[C@@H](O[C@@H]3C(N)C[C@@H](N)C(O)[C@H]3N)OC2C1O (stereo partly drawn) [Compound W2-b, 5-amino-5-deoxy-5-epi-4″-N-glycylapramycin]	4 µg/mL (≈ 6.72 µM)	2 µg/mL (≈ 3.36 µM)	16 µg/mL (≈ 26.9 µM)	32 µg/mL (≈ 53.7 µM)	1 µg/mL (≈ 1.68 µM)	2 µg/mL (≈ 3.36 µM)	2 µg/mL (≈ 3.36 µM)	8 µg/mL (≈ 13.4 µM)	16 µg/mL (≈ 26.9 µM)	8 µg/mL (≈ 13.4 µM)	2 µg/mL (≈ 3.36 µM)	4 µg/mL (≈ 6.72 µM)	4 µg/mL (≈ 6.72 µM)	4 µg/mL (≈ 6.72 µM)	–
